Measured values: US11708366B2, “Heteroaryl substituted spiropiperidinyl derivatives and pharmaceutical uses thereof” (Novartis AG, priority 2020, dated 2023)
Read-outs that look alike come from different tables or passages of the source.

Biological target: LTC4S (Homo sapiens (Human), UniProt Q16873)
Test: Human whole blood HTRF assay (LTC4 release after calcium ionophore A23187)
Assay type: cell-based
Conditions: calcium ionophore A23187 stimulation, LTC4 by HTRF
[1] = human whole blood diluted 1:3, 4 h incubation, read-out: human whole blood HTRF IC50
[2] = human whole blood HTRF IC50, human whole blood diluted 1:3, 4 h incubation

Compound | IC50 [1] | IC50 [2]
O=C1OCCC2(CCN(c3cc(-n4cc(C(F)(F)F)cn4)nc(CO)n3)CC2)N1c1ccc(F)c(F)c1 [Example 114, 1-(3,4-difluorophenyl)-9-(2-(hydroxymethyl)-6-(4-(trifluoromethyl)-1H-pyrazol-1-yl)pyrimidin-4-yl)-3-oxa-1,9-diazaspiro[5.5]undecan-2-one] | 7 nM | –
[2H]C([2H])(Oc1cc(N2CCC3(CCCC(=O)N3c3ccc(F)c(F)c3)CC2)nc(N)n1)C(F)(F)F [Example 92, 9-(2-amino-6-(2,2,2-trifluoroethoxy-1,1-d2)pyrimidin-4-yl)-1-(3,4-difluorophenyl)-1,9-diazaspiro[5.5]undecan-2-one] | 5 nM | –
Nc1nc(OC2CCOCC2)cc(N2CCC3(CCCC(=O)N3c3ccc(F)c(F)c3)CC2)n1 [Example 101, 9-(2-amino-6-((tetrahydro-2H-pyran-4-yl)oxy)pyrimidin-4-yl)-1-(3,4-difluorophenyl)-1,9-diazaspiro[5.5]undecan-2-one] | 5 nM | –
CC1(O)CN(c2nc(N)cc(N3CCC4(CCCC(=O)N4c4ccc(F)c(F)c4)CC3)n2)C1 [Example 43, 9-(6-amino-2-(3-hydroxy-3-methylazetidin-1-yl)pyrimidin-4-yl)-1-(3,4-difluorophenyl)-1,9-diazaspiro[5.5]undecan-2-one] | 400 nM | –
O=C1CCCC2(CCN(c3cc(N4CCCOCC4)ncn3)CC2)N1c1ccc(F)c(F)c1 [Example 45, 9-(6-(1,4-oxazepan-4-yl)pyrimidin-4-yl)-1-(3,4-difluorophenyl)-1,9-diazaspiro[5.5]undecan-2-one] | 620 nM | –
Nc1nc(O[C@H]2CCOC[C@@H]2F)cc(N2CCC3(CCCC(=O)N3c3ccc(F)c(F)c3)CC2)n1 (racemic) [Example 99, rac-9-(2-amino-6-(((3S,4S)-3-fluorotetrahydro-2H-pyran-4-yl)oxy)pyrimidin-4-yl)-1-(3,4-difluorophenyl)-1,9-diazaspiro[5.5]undecan-2-one] | 4 nM | –
Nc1nc(N2CCC3(CC2)CC(F)CC(=O)N3c2ccc(F)c(F)c2)cc(C(F)(F)C(F)(F)F)n1 (racemic) [Example 117, rac-9-(2-amino-6-(perfluoroethyl)pyrimidin-4-yl)-1-(3,4-difluorophenyl)-4-fluoro-1,9-diazaspiro[5.5]undecan-2-one] | 18 nM | –
O=C1CCCC2(CCN(c3cc(-n4cc(C(F)(F)F)cn4)n[nH]c3=O)CC2)N1c1ccc(F)c(F)c1 [Example 12, 1-(3,4-difluorophenyl)-9-(3-oxo-6-(4-(trifluoromethyl)-1H-pyrazol-1-yl)-2,3-dihydropyridazin-4-yl)-1,9-diazaspiro [5.5] undecane-2-one] | 2 nM | –
O=C1CCCC2(CCN(c3cc(O[C@@H]4CCOC4)nc(Cl)n3)CC2)N1c1ccc(F)c(F)c1 [Example 70, (R)-9-(2-chloro-6-((tetrahydrofuran-3-yl)oxy)pyrimidin-4-yl)-1-(3,4-difluorophenyl)-1,9-diazaspiro[5.5]undecan-2-one] | 110 nM | –
Nc1nc(OCC(F)(F)C(F)(F)F)cc(N2CCC3(CCCC(=O)N3c3ccc(F)c(F)c3)CC2)n1 [Example 97] | 3 nM | –
O=C1CC(F)CC2(CCN(c3cc(OCC(F)(F)F)ncn3)CC2)N1c1ccc(F)c(F)c1 (centres unmarked) [Example 119, 1-(3,4-difluorophenyl)-4-fluoro-9-(6-(2,2,2-trifluoroethoxy)pyrimidin-4-yl)-1,9-diazaspiro[5.5]undecan-2-one] | – | 29 nM
O=C1CCCC2(CCN(c3cc(OC4CCOCC4)ncn3)CC2)N1c1ccc(F)c(F)c1 [Example 87, 1-(3,4-difluorophenyl)-9-(6-((tetrahydro-2H-pyran-4-yl)oxy)pyrimidin-4-yl)-1,9-diazaspiro[5.5]undecan-2-one] | 7 nM | –
O=C1CCCC2(CCN(c3cc(OC4CCOCC4)nc(CO)n3)CC2)N1c1ccc(F)c(F)c1 [Example 106, 1-(3,4-difluorophenyl)-9-(2-(hydroxymethyl)-6-((tetrahydro-2H-pyran-4-yl)oxy)pyrimidin-4-yl)-1,9-diazaspiro[5.5]undecan-2-one] | 69 nM | –
COc1nc(N2CCC3(CCCC(=O)N3c3ccc(F)c(F)c3)CC2)cc(-n2cccn2)n1 [Example 50, 1-(3,4-difluorophenyl)-9-(2-methoxy-6-(1H-pyrazol-1-yl)pyrimidin-4-yl)-1,9-diazaspiro[5.5]undecan-2-one] | 45 nM | –
O=C1CCCC2(CCN(c3nc(C4=CCC(F)(F)CC4)c[nH]c3=O)CC2)N1c1ccc(F)c(F)c1 [Example 18, 9-(6-(4,4-difluorocyclohex-1-en-1-yl)-3-oxo-3,4-dihydropyrazin-2-yl)-1-(3,4-difluorophenyl)-1,9-diazaspiro[5.5]undecane-2-one] | 2 nM | –
O=C1CC(F)CC2(CCN(c3cc(OC4CCOCC4)ncn3)CC2)N1c1ccc(F)c(F)c1 (racemic) [Example 118, rac-1-(3,4-difluorophenyl)-4-fluoro-9-(6-((tetrahydro-2H-pyran-4-yl)oxy)pyrimidin-4-yl)-1,9-diazaspiro[5.5]undecan-2-one] | 8 nM | –

Compound | IC50 [1] | IC50 [2]
Nc1nc(OC2COCC2(F)F)cc(N2CCC3(CCCC(=O)N3c3ccc(F)c(F)c3)CC2)n1 (racemic) [Example 98, rac-9-(2-amino-6-((4,4-difluorotetrahydrofuran-3-yl)oxy)pyrimidin-4-yl)-1-(3,4-difluorophenyl)-1,9-diazaspiro[5.5]undecan-2-one] | 3 nM | –
O=C1CCCC2(CCN(c3cc(OCC(F)(F)F)n[nH]c3=O)CC2)N1c1ccc(F)c(F)c1 [Example 13, 1-(3,4-difluorophenyl)-9-(3-oxo-6-(2,2,2-trifluoroethoxy)-2,3-dihydropyridazin-4-yl)-1,9-diazaspiro[5.5]undecan-2-one] | 36 nM | –
(S)-9-(2-amino-6-(2,2,2-trifluoro-1-(oxetan-3-yl)ethoxy)pyrimidin-4-yl)-1-(3,4-difluorophenyl)-1,9-diazaspiro[5.5]undecan-2-one or (R)-9-(2-amino-6-(2,2,2-trifluoro-1-(oxetan-3-yl)ethoxy)pyrimidin-4-yl)-1-(3,4-difluorophenyl)-1,9-diazaspiro[5.5]undecan-2-one [Example 89a] | 1 nM | –
Cn1cc(C2=CCC(F)(F)CC2)nc(N2CCC3(CCCC(=O)N3c3ccc(F)c(F)c3)CC2)c1=O [Example 19, 9-(6-(4,4-difluorocyclohex-1-en-1-yl)-4-methyl-3-oxo-3,4-dihydropyrazin-2-yl)-1-(3,4-difluorophenyl)-1,9-diazaspiro[5.5]undecane-2-one] | 3 nM | –
CC(Oc1cc(N2CCC3(CCCC(=O)N3c3ccc(F)c(F)c3)CC2)ncn1)C(F)(F)F (racemic) [Example 86, rac-1-(3,4-dfluorophenyl)-9-(6-((1,1,1-trifluoropropan-2-yl)oxy)pyrimidin-4-yl)-1,9-diazaspiro[5.5]undecan-2-one] | 2 nM | –
CC1(Oc2cc(N3CCC4(CCCC(=O)N4c4ccc(F)c(F)c4)CC3)nc(N)n2)CCOC1 (racemic) [Example 104, rac-9-(2-amino-6-((3-methyltetrahydrofuran-3-yl)oxy)pyrimidin-4-yl)-1-(3,4-difluorophenyl)-1,9-diazaspiro[5.5]undecan-2-one] | 5 nM | –
CN(C)c1nc(N2CCC3(CCCC(=O)N3c3ccc(F)c(F)c3)CC2)cc(-n2cccn2)n1 [Example 53, 1-(3,4-difluorophenyl)-9-(2-(dimethylamino)-6-(1H-pyrazol-1-yl)pyrimidin-4-yl)-1,9-diazaspiro[5.5]undecan-2-one] | 1140 nM | –
Nc1nc(O[C@H]2COC[C@H]2F)cc(N2CCC3(CCCC(=O)N3c3ccc(F)c(F)c3)CC2)n1 (racemic) [Example 105, rac-9-(2-amino-6-(((3S,4R)-4-fluorotetrahydrofuran-3-yl)oxy)pyrimidin-4-yl)-1-(3,4-difluorophenyl)-1,9-diazaspiro[5.5]undecan-2-one] | 6 nM | –
O=C1CCCC2(CCN(c3cc(OC4CCOCC4)n[nH]c3=O)CC2)N1c1ccc(F)c(F)c1 [Example 16, 1-(3,4-difluorophenyl)-9-(3-oxo-6-((tetrahydro-2H-pyran-4-yl)oxy)-2,3-dihydropyridazin-4-yl)-1,9-diazaspiro[5.5]undecan-2-one] | – | 16 nM
Cc1nc(N2CCC3(CCCC(=O)N3c3ccc(F)c(F)c3)CC2)cc(-n2cccn2)n1 [Example 48, 1-(3,4-difluorophenyl)-9-(2-methyl-6-(1H-pyrazol-1-yl)pyrimidin-4-yl)-1,9-diazaspiro[5.5]undecan-2-one] | 45 nM | –
Nc1nc(N2CCC3(CCCC(=O)N3c3ccc(F)c(F)c3)CC2)cc(C(F)(F)C(F)(F)F)n1 [Example 77, 9-(2-amino-6-(perfluoroethyl)pyrimidin-4-yl)-1-(3,4-difluorophenyl)-1,9-diazaspiro[5.5]undecane-2-one] | 31 nM | –
NC1(C(F)(F)F)CCN(c2ccnc(N3CCC4(CCCC(=O)N4c4ccc(F)c(F)c4)CC3)n2)CC1 [Example 39, 9-(4-(4-amino-4-(trifluoromethyl)piperidin-1-yl)pyrimidin-2-yl)-1-(3,4-difluorophenyl)-1,9-diazaspiro[5.5]undecan-2-one] | 4 nM | –
O=C1CCCC2(CCN(c3cc(O[C@H]4CCOC4)nc(CO)n3)CC2)N1c1ccc(F)c(F)c1 [Example 109, (S)-1-(3,4-difluorophenyl)-9-(2-(hydroxymethyl)-6-((tetrahydrofuran-3-yl)oxy)pyrimidin-4-yl)-1,9-diazaspiro[5.5]undecan-2-one] | 15 nM | –
CC(Oc1cc(N2CCC3(CCCC(=O)N3c3ccc(F)c(F)c3)CC2)nc(N)n1)C(F)(F)F (racemic) [Example 95, rac-9-(2-amino-6-((1,1,1-trifluoropropan-2-yl)oxy)pyrimidn-4-yl)-1-(3,4-difluorophienyl)-1,9-diazaspiro[5.5]undecan-2-one] | 2 nM | –
Nc1nc(-c2ccc(F)cc2)cc(N2CCC3(CCCC(=O)N3c3ccc(F)c(F)c3)CC2)n1 [Example 75] | 4 nM | –
Nc1nc(OC2CC(F)(F)C2)cc(N2CCC3(CCCC(=O)N3c3ccc(F)c(F)c3)CC2)n1 [Example 90, 9-(2-amino-6-(3,3-difluorocyclobutoxy)pyrimidin-4-yl)-1-(3,4-difluorophenyl)-1,9-diazaspiro[5.5]undecan-2-one] | 4 nM | –
